Data taken from ChEMBL document CHEMBL3885881, “DrugMatrix”.

Species: Rattus norvegicus
Assay: DrugMatrix - Regimen: Daily Repeat
Format: toxicity, organism-based, Sprague-Dawley
Design: regimen Daily Repeat, gender Male, age 6-8 weeks
Conditions: in vivo, po, route oral GAVAGE, vehicle .5 % CMC; for ABSOLUTE BASOPHIL / ABSOLUTE EOSINOPHIL / ABSOLUTE LYMPHOCYTE / ABSOLUTE MONOCYTE / ABSOLUTE SEGMENTED NEUTROPHIL / BASOPHIL / EOSINOPHIL / ERYTHROCYTE COUNT / HEMATOCRIT / HEMOGLOBIN / LEUKOCYTE COUNT / LYMPHOCYTE / MEAN CORPUSCULAR HEMOGLOBIN / MEAN CORPUSCULAR HEMOGLOBIN CONCENTRATION / MEAN CORPUSCULAR VOLUME / MONOCYTE / NEUTROPHIL / NUCLEATED RED BLOOD CELLS / PLATELET COUNT: tissue Blood; for ALANINE AMINOTRANSFERASE / ALBUMIN / ALKALINE PHOSPHATASE / ASPARTATE AMINOTRANSFERASE / BLOOD UREA NITROGEN / CARBON DIOXIDE / CHLORIDE / CHOLESTEROL / CREATINE PHOSPHOKINASE / CREATININE / GLUCOSE / LACTATE DEHYDROGENASE / LIPASE / PHOSPHORUS / POTASSIUM / SODIUM / TOTAL BILIRUBIN / TOTAL PROTEIN / URIC ACID: tissue Plasma
[1] = 10 mg/kg, 72 h, dose level Low, time 3 day
[2] = 10 mg/kg, 120 h, dose level Low, time 5 day
[3] = 1500 mg/kg, 72 h, dose level High, time 3 day
[4] = 1500 mg/kg, 120 h, dose level High, time 5 day

NS(=O)(=O)c1cc2c(cc1Cl)NCNS2(=O)=O [HYDROCHLOROTHIAZIDE]
ABSOLUTE BASOPHIL [1]: 0 CELLS/uL
ABSOLUTE EOSINOPHIL [1]: 69 CELLS/uL
ABSOLUTE LYMPHOCYTE [1]: 10610.67 CELLS/uL
ABSOLUTE MONOCYTE [1]: 107.67 CELLS/uL
ABSOLUTE SEGMENTED NEUTROPHIL [1]: 3446 CELLS/uL
BASOPHIL [1]: 0%
EOSINOPHIL [1]: 0.33%
ERYTHROCYTE COUNT [1]: 5.79 x10E6/uL
HEMATOCRIT [1]: 34.73%
HEMOGLOBIN [1]: 13.77 G/DL
LEUKOCYTE COUNT [1]: 14.23 x10E3/uL
LYMPHOCYTE [1]: 77.33%
MEAN CORPUSCULAR HEMOGLOBIN [1]: 23.8 pg
MEAN CORPUSCULAR HEMOGLOBIN CONCENTRATION [1]: 39.67 G/DL
MEAN CORPUSCULAR VOLUME [1]: 60.07 fL
MONOCYTE [1]: 1%
NEUTROPHIL [1]: 21.33%
NUCLEATED RED BLOOD CELLS [1]: 0 /100WBC
PLATELET COUNT [1]: 1306 x10E3/uL
ALANINE AMINOTRANSFERASE [1]: 49 u/L
ALBUMIN [1]: 4.17 G/DL
ALKALINE PHOSPHATASE [1]: 352 u/L
ASPARTATE AMINOTRANSFERASE [1]: 90.67 u/L
BLOOD UREA NITROGEN [1]: 14.33 mg/dL
CARBON DIOXIDE [1]: 24.33 mmol/L
CHLORIDE [1]: 103 MEQ/L
CHOLESTEROL [1]: 65.67 mg/dL
CREATINE PHOSPHOKINASE [1]: 517.67 u/L
CREATININE [1]: 0.15 mg/dL
GLUCOSE [1]: 149.33 mg/dL
LACTATE DEHYDROGENASE [1]: 306.67 u/L
LIPASE [1]: 10 u/L
PHOSPHORUS [1]: 12.73 mg/dL
POTASSIUM [1]: 6.56 MEQ/L
SODIUM [1]: 144.2 MEQ/L
TOTAL BILIRUBIN [1]: 0.2 mg/dL
TOTAL PROTEIN [1]: 5.87 G/DL
URIC ACID [1]: 2.5 mg/dL
ABSOLUTE BASOPHIL [2]: 0 CELLS/uL
ABSOLUTE EOSINOPHIL [2]: 0 CELLS/uL
ABSOLUTE LYMPHOCYTE [2]: 12129.67 CELLS/uL
ABSOLUTE MONOCYTE [2]: 37.67 CELLS/uL
ABSOLUTE SEGMENTED NEUTROPHIL [2]: 1466 CELLS/uL
BASOPHIL [2]: 0%
EOSINOPHIL [2]: 0%
ERYTHROCYTE COUNT [2]: 5.92 x10E6/uL
HEMATOCRIT [2]: 36.07%
HEMOGLOBIN [2]: 14.23 G/DL
LEUKOCYTE COUNT [2]: 13.63 x10E3/uL
LYMPHOCYTE [2]: 89.67%
MEAN CORPUSCULAR HEMOGLOBIN [2]: 24.03 pg
MEAN CORPUSCULAR HEMOGLOBIN CONCENTRATION [2]: 39.47 G/DL
MEAN CORPUSCULAR VOLUME [2]: 60.83 fL
MONOCYTE [2]: 0.33%
NEUTROPHIL [2]: 10%
NUCLEATED RED BLOOD CELLS [2]: 0 /100WBC
PLATELET COUNT [2]: 1189.67 x10E3/uL
ALANINE AMINOTRANSFERASE [2]: 46 u/L
ALBUMIN [2]: 4.07 G/DL
ALKALINE PHOSPHATASE [2]: 390.67 u/L
ASPARTATE AMINOTRANSFERASE [2]: 89.67 u/L
BLOOD UREA NITROGEN [2]: 13.67 mg/dL
CARBON DIOXIDE [2]: 25.33 mmol/L
CHLORIDE [2]: 101.67 MEQ/L
CHOLESTEROL [2]: 62 mg/dL
CREATINE PHOSPHOKINASE [2]: 269.33 u/L
CREATININE [2]: 0.2 mg/dL
GLUCOSE [2]: 162.33 mg/dL
LACTATE DEHYDROGENASE [2]: 281.67 u/L
LIPASE [2]: 9 u/L
PHOSPHORUS [2]: 11.27 mg/dL
POTASSIUM [2]: 6.59 MEQ/L
SODIUM [2]: 143.33 MEQ/L
TOTAL BILIRUBIN [2]: 0.17 mg/dL
TOTAL PROTEIN [2]: 5.83 G/DL
URIC ACID [2]: 2 mg/dL
ABSOLUTE BASOPHIL [3]: 0 CELLS/uL
ABSOLUTE EOSINOPHIL [3]: 0 CELLS/uL
ABSOLUTE LYMPHOCYTE [3]: 11188.67 CELLS/uL
ABSOLUTE MONOCYTE [3]: 0 CELLS/uL
ABSOLUTE SEGMENTED NEUTROPHIL [3]: 1278 CELLS/uL
BASOPHIL [3]: 0%
EOSINOPHIL [3]: 0%
ERYTHROCYTE COUNT [3]: 5.96 x10E6/uL
HEMATOCRIT [3]: 35.57%
HEMOGLOBIN [3]: 13.93 G/DL
LEUKOCYTE COUNT [3]: 12.47 x10E3/uL
LYMPHOCYTE [3]: 90%
MEAN CORPUSCULAR HEMOGLOBIN [3]: 23.43 pg
MEAN CORPUSCULAR HEMOGLOBIN CONCENTRATION [3]: 39.2 G/DL
MEAN CORPUSCULAR VOLUME [3]: 59.7 fL
MONOCYTE [3]: 0%
NEUTROPHIL [3]: 10%
NUCLEATED RED BLOOD CELLS [3]: 0.67 /100WBC
PLATELET COUNT [3]: 1140 x10E3/uL
ALANINE AMINOTRANSFERASE [3]: 52.67 u/L
ALBUMIN [3]: 4.17 G/DL
ALKALINE PHOSPHATASE [3]: 353.33 u/L
ASPARTATE AMINOTRANSFERASE [3]: 88.33 u/L
BLOOD UREA NITROGEN [3]: 19 mg/dL
CARBON DIOXIDE [3]: 31 mmol/L
CHLORIDE [3]: 95.33 MEQ/L
CHOLESTEROL [3]: 70.67 mg/dL
CREATININE [3]: 0.2 mg/dL
GLUCOSE [3]: 159.33 mg/dL
LACTATE DEHYDROGENASE [3]: 413 u/L
LIPASE [3]: 9.67 u/L
PHOSPHORUS [3]: 11.27 mg/dL
POTASSIUM [3]: 5.57 MEQ/L
SODIUM [3]: 141.57 MEQ/L
TOTAL BILIRUBIN [3]: 0.17 mg/dL
TOTAL PROTEIN [3]: 5.8 G/DL
URIC ACID [3]: 1.43 mg/dL
ABSOLUTE BASOPHIL [4]: 0 CELLS/uL
ABSOLUTE EOSINOPHIL [4]: 84 CELLS/uL
ABSOLUTE LYMPHOCYTE [4]: 12827 CELLS/uL
ABSOLUTE MONOCYTE [4]: 104 CELLS/uL
ABSOLUTE SEGMENTED NEUTROPHIL [4]: 1585 CELLS/uL
BASOPHIL [4]: 0%
EOSINOPHIL [4]: 0.67%
ERYTHROCYTE COUNT [4]: 5.59 x10E6/uL
HEMATOCRIT [4]: 33.87%
HEMOGLOBIN [4]: 13.63 G/DL
LEUKOCYTE COUNT [4]: 14.6 x10E3/uL
LYMPHOCYTE [4]: 88%
MEAN CORPUSCULAR HEMOGLOBIN [4]: 24.4 pg
MEAN CORPUSCULAR HEMOGLOBIN CONCENTRATION [4]: 40.23 G/DL
MEAN CORPUSCULAR VOLUME [4]: 60.63 fL
MONOCYTE [4]: 0.67%
NEUTROPHIL [4]: 10.67%
NUCLEATED RED BLOOD CELLS [4]: 0 /100WBC
PLATELET COUNT [4]: 1221.67 x10E3/uL
ALANINE AMINOTRANSFERASE [4]: 64.67 u/L
ALBUMIN [4]: 4.33 G/DL
ALKALINE PHOSPHATASE [4]: 393 u/L
ASPARTATE AMINOTRANSFERASE [4]: 80 u/L
BLOOD UREA NITROGEN [4]: 20 mg/dL
CARBON DIOXIDE [4]: 31.33 mmol/L
CHLORIDE [4]: 97 MEQ/L
CHOLESTEROL [4]: 69 mg/dL
CREATINE PHOSPHOKINASE [4]: 157.67 u/L
CREATININE [4]: 0.2 mg/dL
GLUCOSE [4]: 153.33 mg/dL
LACTATE DEHYDROGENASE [4]: 110.33 u/L
LIPASE [4]: 10 u/L
PHOSPHORUS [4]: 12.1 mg/dL
POTASSIUM [4]: 6.18 MEQ/L
SODIUM [4]: 144.7 MEQ/L
TOTAL BILIRUBIN [4]: 0.2 mg/dL
TOTAL PROTEIN [4]: 5.97 G/DL
URIC ACID [4]: 1.57 mg/dL
